Laboratory results from paper PMC4494889 (Cell reports, 2015).
Substitutions are numbered along the chain they refer to. Like-named read-outs stand apart in the source and are kept apart here.

Tests used:
RIPK2 = RIPK2 (Homo sapiens, UniProt O43353); assay: ADP-Glo in vitro kinase assay, recombinant RIPK2; type: biochemical
RIPK3 [1] = molecular target: T1, RIPK3 (Homo sapiens, UniProt Q9Y572); assay: ADP-Glo in vitro kinase assay, recombinant RIPK3; type: biochemical
RIPK1 [2] = molecular target: T2, RIPK1 (Homo sapiens, UniProt Q13546); assay: ADP-Glo in vitro kinase assay, recombinant RIPK1
T2 sequence (Q13546 1-327): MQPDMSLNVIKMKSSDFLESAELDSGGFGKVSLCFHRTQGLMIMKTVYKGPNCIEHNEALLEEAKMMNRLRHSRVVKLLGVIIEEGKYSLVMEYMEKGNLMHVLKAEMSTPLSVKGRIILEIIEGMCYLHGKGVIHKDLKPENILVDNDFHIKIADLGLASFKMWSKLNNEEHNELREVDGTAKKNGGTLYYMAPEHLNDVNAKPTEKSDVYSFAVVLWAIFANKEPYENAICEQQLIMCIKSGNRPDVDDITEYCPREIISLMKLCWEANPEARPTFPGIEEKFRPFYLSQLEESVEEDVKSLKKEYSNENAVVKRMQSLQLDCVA

[3] = test system: FADD-deficient Jurkat cells; assay: Jurkat cell necroptosis assay; details: for IC50: read-out: IC50, nM Jurkat cell necroptosis assay (RIPK1/3-dependent)
MEFs [4] = assay: poly; type: cell-based, mouse; details: 5 μg/ml poly(I:C), 50 μM zVAD.fmk, 24 hr
MEFs [5] = assay: TCZ; type: cell-based; details: 50 ng/ml mouse TNFα, 200 ng/ml cycloheximide, 25 μM zVAD.fmk, 18 hr
[6] = molecular target: T3, RIPK1/RIPK3 “necrosome” complex (Mus musculus, UniProt Q60855); assay: Necrosome complex formation, co-IP assay in TCZ-stimulated MEFs; type: cell-based; details: TCZ 6 hr, RIPK3 immunoprecipitation
T3 sequence (Q60855 1-656): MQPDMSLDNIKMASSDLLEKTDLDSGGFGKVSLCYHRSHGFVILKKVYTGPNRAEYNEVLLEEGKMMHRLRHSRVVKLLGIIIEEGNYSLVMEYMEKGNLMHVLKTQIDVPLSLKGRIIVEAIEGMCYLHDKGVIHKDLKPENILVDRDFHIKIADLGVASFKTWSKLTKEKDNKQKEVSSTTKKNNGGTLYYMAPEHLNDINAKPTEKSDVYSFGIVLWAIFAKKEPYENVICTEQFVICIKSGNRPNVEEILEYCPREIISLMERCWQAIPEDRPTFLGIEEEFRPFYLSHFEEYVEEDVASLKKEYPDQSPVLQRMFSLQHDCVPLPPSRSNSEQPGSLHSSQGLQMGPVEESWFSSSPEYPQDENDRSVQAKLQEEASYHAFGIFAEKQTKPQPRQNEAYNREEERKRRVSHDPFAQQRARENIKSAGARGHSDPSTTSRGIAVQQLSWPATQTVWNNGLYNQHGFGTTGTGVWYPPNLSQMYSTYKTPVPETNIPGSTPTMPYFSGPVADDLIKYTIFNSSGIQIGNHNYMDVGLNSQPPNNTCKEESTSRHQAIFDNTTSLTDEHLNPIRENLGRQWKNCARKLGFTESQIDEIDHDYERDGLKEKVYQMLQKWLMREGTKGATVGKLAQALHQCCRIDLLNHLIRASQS

RIPK1−/− MEFs = assay: IFNγ-induced RIPK3-dependent cell death; details: 10 ng/ml IFNγ, 24 hr
MEFs [7] = assay: RIPK1-dependent apoptosis of MEFs; details: 10 ng/ml mouse TNFα + 100 nM 5z-7-oxozeaenol, 24 hr
Abl = Abl (Homo sapiens, UniProt P00519); assay: ADP-Glo in vitro kinase assay, recombinant Abl; type: biochemical; details: read-out: IC50, nM ADPGlo, Abl; recombinant Abl (1 ng)
Sequence of Abl (P00519 whole entry, species assumed): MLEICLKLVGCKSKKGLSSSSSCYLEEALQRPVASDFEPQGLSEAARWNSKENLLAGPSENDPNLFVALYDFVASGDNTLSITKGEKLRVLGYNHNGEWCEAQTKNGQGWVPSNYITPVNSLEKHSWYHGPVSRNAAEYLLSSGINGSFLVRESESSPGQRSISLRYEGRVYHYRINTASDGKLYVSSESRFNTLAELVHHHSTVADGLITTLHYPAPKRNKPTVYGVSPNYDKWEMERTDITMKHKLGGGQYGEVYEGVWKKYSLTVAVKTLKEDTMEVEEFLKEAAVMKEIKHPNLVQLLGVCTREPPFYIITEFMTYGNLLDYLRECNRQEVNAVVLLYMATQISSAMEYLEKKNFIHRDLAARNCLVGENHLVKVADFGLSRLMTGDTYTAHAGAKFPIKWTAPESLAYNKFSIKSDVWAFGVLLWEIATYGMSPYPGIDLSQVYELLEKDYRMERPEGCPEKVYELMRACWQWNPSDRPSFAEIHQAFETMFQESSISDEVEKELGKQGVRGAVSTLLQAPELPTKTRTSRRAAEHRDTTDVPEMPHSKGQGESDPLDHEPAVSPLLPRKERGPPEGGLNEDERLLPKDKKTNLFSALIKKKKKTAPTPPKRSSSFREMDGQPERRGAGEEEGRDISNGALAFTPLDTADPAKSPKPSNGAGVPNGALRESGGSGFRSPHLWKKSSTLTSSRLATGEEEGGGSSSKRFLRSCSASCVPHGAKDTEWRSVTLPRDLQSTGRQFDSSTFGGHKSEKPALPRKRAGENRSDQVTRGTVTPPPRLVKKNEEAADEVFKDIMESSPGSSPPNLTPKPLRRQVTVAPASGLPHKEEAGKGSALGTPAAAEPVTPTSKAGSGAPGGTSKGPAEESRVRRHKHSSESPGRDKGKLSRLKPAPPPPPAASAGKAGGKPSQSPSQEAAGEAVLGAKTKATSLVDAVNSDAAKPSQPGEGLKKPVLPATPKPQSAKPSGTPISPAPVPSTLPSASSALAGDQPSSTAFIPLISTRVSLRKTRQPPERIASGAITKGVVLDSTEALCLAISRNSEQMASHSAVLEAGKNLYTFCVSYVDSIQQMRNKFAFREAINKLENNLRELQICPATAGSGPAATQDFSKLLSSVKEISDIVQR

RIPK1 [8] = molecular target: T2, RIPK1; assay: 32P autophosphorylation assay, recombinant RIPK1; type: biochemical; details: 2 μM kinase
RIPK3 [9] = molecular target: T1, RIPK3; assay: 32P autophosphorylation assay, recombinant RIPK3; type: biochemical; details: 2 μM kinase
[10] = test system: TNFα mRNA in FADD-deficient Jurkat cells; assay: RIPK1-dependent TNFα mRNA upregulation, qRT-PCR, Jurkat; type: cell-based; details: 10 ng/ml human TNFα, 8 hr
TNFα mRNA in iBMM cells = assay: RIPK1-dependent TNFα mRNA upregulation, qRT-PCR, iBMM; type: cell-based, mouse; details: 10 ng/ml LPS and 50 μM zVAD.fmk, 7 hr
[11] = test system: TNFα toxicity in C57BL6/J mice; assay: TNF-induced injury in vivo; details: for protection from TNFα toxicity in vivo: 15 min before 5 μg/mouse mouse TNFα i.v.; for activity with respect to survival and injury markers: 0.4 mg/kg i.p., versus Nec-1
RIPK1 [12] = molecular target: T4, RIPK1 (Homo sapiens, UniProt Q13546); assay: ScanEDGE; type: binding; details: 1 μM
T4 sequence (Q13546 1-671): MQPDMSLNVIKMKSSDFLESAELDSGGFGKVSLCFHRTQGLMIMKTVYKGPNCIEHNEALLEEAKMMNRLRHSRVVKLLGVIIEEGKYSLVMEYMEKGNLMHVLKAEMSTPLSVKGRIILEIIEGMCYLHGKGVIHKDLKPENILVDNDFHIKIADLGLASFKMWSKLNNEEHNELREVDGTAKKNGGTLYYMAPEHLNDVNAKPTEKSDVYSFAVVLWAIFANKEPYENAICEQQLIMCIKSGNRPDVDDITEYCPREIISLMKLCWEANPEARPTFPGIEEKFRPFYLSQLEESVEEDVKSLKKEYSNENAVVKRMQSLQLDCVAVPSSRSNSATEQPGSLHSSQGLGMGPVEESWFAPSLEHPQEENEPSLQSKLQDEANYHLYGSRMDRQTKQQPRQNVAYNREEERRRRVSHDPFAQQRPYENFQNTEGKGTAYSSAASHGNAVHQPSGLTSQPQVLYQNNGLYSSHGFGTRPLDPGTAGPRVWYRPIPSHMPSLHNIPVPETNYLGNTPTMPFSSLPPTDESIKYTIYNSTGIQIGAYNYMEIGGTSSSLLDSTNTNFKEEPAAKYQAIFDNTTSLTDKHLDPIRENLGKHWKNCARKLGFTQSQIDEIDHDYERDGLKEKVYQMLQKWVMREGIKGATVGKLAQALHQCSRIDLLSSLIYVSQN

DYRK1b = DYRK1b (Homo sapiens, UniProt Q9Y463); assay: ScanEDGE; type: binding; details: 1 μM
Sequence of DYRK1b (Q9Y463 whole entry): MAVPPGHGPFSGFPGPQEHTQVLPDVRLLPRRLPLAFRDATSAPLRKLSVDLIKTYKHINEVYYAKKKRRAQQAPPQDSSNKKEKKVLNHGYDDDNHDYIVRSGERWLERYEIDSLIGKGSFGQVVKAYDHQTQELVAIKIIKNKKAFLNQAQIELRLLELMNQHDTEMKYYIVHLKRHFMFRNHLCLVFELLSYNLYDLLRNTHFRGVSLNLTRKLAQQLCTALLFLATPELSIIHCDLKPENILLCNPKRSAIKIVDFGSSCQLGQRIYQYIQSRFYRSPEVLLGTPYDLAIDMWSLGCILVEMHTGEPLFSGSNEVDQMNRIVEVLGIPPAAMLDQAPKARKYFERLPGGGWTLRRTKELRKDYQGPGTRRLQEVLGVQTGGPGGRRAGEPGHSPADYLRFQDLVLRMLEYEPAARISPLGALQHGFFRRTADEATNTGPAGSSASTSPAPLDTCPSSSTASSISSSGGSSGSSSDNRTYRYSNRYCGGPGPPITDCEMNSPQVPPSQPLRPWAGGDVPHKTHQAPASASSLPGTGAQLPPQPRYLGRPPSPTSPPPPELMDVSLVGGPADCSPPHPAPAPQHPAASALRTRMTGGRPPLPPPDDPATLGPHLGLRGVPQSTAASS

[13] = test system: diversity set of 97 kinases (90 wild type kinase and 7 mutants); type: binding, human; details: 1 μM
RIPK1 [14] = molecular target: T2, RIPK1; assay: HTRF assay of RIPK1; type: biochemical
L157F/M92T RIPK1 = molecular target: T5, L157F/M92T RIPK1 (Homo sapiens, UniProt Q13546, L157F/M92T); assay: 32P autophosphorylation assay, L157F/M92T RIPK1; type: biochemical; details: FLAG-tagged kinase (a.a. 1–327) from HEK293T cells
T5 sequence (Q13546 1-327 M92T/L157F): T2 sequence (Q13546 1-327) with M92T, L157F

[15] = read-out: IC50, nM ADPGlo, RIPK2, recombinant RIPK2 (10 ng)
[16] = read-out: IC50, nM ADPGlo, RIPK3, recombinant RIPK3 (20 ng)
[17] = read-out: IC50, nM ADPGlo, RIPK1, recombinant RIPK1 (20 ng)

T1 sequence (Q9Y572 whole entry, species assumed): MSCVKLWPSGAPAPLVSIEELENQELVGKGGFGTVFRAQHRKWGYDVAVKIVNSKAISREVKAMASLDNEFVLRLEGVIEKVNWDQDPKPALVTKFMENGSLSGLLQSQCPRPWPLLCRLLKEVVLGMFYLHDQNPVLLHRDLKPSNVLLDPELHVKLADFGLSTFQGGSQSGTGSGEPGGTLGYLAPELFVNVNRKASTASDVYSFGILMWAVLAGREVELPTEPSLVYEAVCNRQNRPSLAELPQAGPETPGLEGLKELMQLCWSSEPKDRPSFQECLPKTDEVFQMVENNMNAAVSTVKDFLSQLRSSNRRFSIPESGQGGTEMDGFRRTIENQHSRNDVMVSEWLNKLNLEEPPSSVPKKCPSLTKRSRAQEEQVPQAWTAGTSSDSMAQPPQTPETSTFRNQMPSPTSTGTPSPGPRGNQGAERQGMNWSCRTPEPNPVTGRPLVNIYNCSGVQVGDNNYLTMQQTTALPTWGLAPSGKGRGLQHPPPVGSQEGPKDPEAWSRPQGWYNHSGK
Sequence of RIPK2 (O43353 whole entry, species assumed): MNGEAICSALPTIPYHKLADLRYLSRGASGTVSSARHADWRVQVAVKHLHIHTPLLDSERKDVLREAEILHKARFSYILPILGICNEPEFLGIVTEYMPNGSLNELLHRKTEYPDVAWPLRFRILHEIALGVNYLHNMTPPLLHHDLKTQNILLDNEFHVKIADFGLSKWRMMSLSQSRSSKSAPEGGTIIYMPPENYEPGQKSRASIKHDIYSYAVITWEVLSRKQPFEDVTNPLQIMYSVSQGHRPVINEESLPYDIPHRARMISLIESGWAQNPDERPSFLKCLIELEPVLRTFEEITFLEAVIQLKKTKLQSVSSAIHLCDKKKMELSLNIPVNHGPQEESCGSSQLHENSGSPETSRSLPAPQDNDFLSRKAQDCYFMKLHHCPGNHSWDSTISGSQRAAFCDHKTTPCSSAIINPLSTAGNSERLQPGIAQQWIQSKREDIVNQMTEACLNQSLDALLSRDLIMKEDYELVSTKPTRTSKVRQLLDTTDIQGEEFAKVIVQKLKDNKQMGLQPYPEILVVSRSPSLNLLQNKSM

| SMILES | inhibition of necrosome complex formation [6] | inhibition of IFNγ-induced cell death (RIPK1−/− MEFs) | IC50 (RIPK2; [15]) [nM] | IC50 (RIPK3 [1]; [16]) [nM] | IC50 (Abl) [nM] | inhibition of RIPK1 in 32P autophosphorylation assay (RIPK1 [8]) | inhibition of RIPK3 in 32P autophosphorylation assay (RIPK3 [9]) | inhibition of TNFα mRNA upregulation, Jurkat cells [10] | inhibition of TNFα mRNA upregulation, immortalized macrophages (TNFα mRNA in iBMM cells) | protection from TNFα toxicity in vivo ([11]; 1 mg/kg i.p.) | IC50 ([3]; 10 ng/ml human TNFα, 24 hr) [nM] | other results |
| --- | --- | --- | --- | --- | --- | --- | --- | --- | --- | --- | --- | --- |
| CNC(=O)c1cc(Oc2ccc(NC(=O)Nc3cc(C(C)(C)C)nn3-c3ccc4ncccc4c3)c(F)c2)ccn1 [DCC-2036] |  |  |  |  |  |  |  |  |  |  |  | IC50 (RIPK2): 520 nM; IC50 (RIPK3 [1]): 18 nM; IC50 (RIPK1 [2]): 5.7 nM; cellular activity, fold lower than ponatinib ([3]; versus ponatinib): > 10 fold |
| CC(C)S(=O)(=O)c1ccc2nccc(Nc3ccc4scnc4c3)c2c1 [GSK-872] | not affected | blockade of cell death |  |  |  |  |  |  |  |  |  | inhibition of poly(I:C)/zVAD.fmk-induced cell death (MEFs [4]): inhibit; protection from TCZ-induced cell death (MEFs [5]): efficiently protecting cells; protection from RIPK1-dependent, RIPK3-independent apoptosis (MEFs [7]): did not inhibit RIPK1-dependent apoptosis |
| Cc1cn(-c2cc(NC(=O)c3ccc(C)c(Nc4nccc(-c5cccnc5)n4)c3)cc(C(F)(F)F)c2)cn1 [Nilotininb] |  | Neither Gleevec nor Nilotininb |  |  |  |  |  |  |  |  |  |  |
| CN1C(=O)NC(Cc2c[nH]c3c(Cl)cccc23)C1=O (centres unmarked) [Nec-1, 7-Cl-O-Nec-1] | efficiently blocked necrosome assembly |  | > 10000 | > 10000 | > 10000 | only inhibited RIPK1 | only inhibited RIPK1 | inhibited | inhibited | significant protection from injury | 210 | inhibition of poly(I:C)/zVAD.fmk-induced cell death (MEFs [4]): marginal protection; circulating levels of IL-6 ([11]; 1 mg/kg i.p.): reduced; survival of the animals ([11]; 1 mg/kg i.p.): prevented death of the animals |
| Cc1ccc(CCCCN2C(=O)NC(Cc3c[nH]c4c(Cl)cccc34)C2=O)cc1C#Cc1cnc2cccnn12 (centres unmarked) [PN10] | efficiently inhibited |  | 1400 |  | > 10000 |  |  | efficiently inhibited | efficiently inhibited | fully protective |  | inhibition of RIPK1 in ScanEDGE panel (RIPK1 [12]): > 99%; inhibition of DYRK1b in ScanEDGE panel (DYRK1b): 79%; inhibition of other kinases of the ScanEDGE panel [13]: No other kinase was inhibited >65%; Maximal protection from TCZ-induced cell death (MEFs [5]): ~ 85%; activity with respect to survival and injury markers [11]: significantly higher activity than Nec-1 |
| Cc1ccc(C(=O)Nc2ccc(CN3CCN(C)CC3)c(C(F)(F)F)c2)cc1C#Cc1cnc2cccnn12 [Ponatinib, ponatinib] | substantial, but lower activity |  |  |  |  | inhibition | inhibition | efficiently inhibited | efficiently inhibited | completely prevented toxicity of TNFα |  | inhibition of RIPK1 in HTRF assay (RIPK1 [14]): inhibition; inhibition of L157F/M92T RIPK1 in 32P autophosphorylation assay (L157F/M92T RIPK1): inhibited; activity with respect to survival and injury markers [11]: significantly higher activity than Nec-1; protection from RIPK1-dependent, RIPK3-independent apoptosis (MEFs [7]): protected |
| Cc1cc(-c2cnc(N)c3c(-c4ccc5scnc5c4)csc23)n(C)n1 [GSK-843] | not affected |  |  |  |  |  |  |  |  |  |  | protection from TCZ-induced cell death (MEFs [5]): efficiently protecting cells |
| Cc1ccc(NC(=O)c2ccc(CN3CCN(C)CC3)cc2)cc1Nc1nccc(-c2cccnc2)n1 [Gleevec, Imatinib] |  | Neither Gleevec nor Nilotininb |  |  |  | neither inhibited | neither inhibited |  |  |  |  | prevention of necroptosis ([3]; 10 ng/ml human TNFα, 24 hr): nor prevented necroptosis |
| CN1CCN(Cc2ccc(NC(=O)c3cccc(C#Cc4cnc5cccnn45)c3)cc2C(F)(F)F)CC1 [CS1] |  |  | 63 | 7.4 |  |  |  |  |  |  | 219 | IC50 (RIPK1 [2]; [17]): 42 nM |
| COc1ccc2c(c1)C1=NN(C(C)=O)C(c3ccc(F)cc3)C1CC2 (centres unmarked) [Nec-3] |  |  | > 10000 | > 10000 | > 10000 |  |  |  |  |  | 260 | IC50 (RIPK1 [2]; [17]): 840 nM |
